IC50 and inhibition data for 27 compounds are collected here from patent US11453663B2, “Substituted propanamides as inhibitors of nucleases” (MASARYKOVA UNIVERZITA, priority 2018, dated 2022).

One experiment concerns the target MRE11 (Homo sapiens (Human), UniProt P49959). The experiment can be described thus: HTS nuclease assay (fluorescence-quenched 5′ overhang DNA substrate cleavage). The format is biochemical. The conditions noted are these: 18 nM MRE11, 40 nM DNA substrate, analysis at t=4 h. As for the experimental part: DNA Substrate Preparation
The DNA substrate is prepared by mixing the oligonucleotides listed below in a 1:1 ratio to reach a final concentration of 6 μM in a buffer containing 50 mM Tris pH 7.5, 100 mM NaCl and 8 mM MgCl2.
The mixture is heat for 3 min at 65° C. and let to cool down slowly to RT. Then it is stored at −20° C.
This substrate is a 5′ overhang, which is a preferred substrate of MRE11. […] The fluorescence increases upon substrate cleavage by MRE11, when separation of the two labels occur.
The conditions of the assay are as follows:
Total reaction volume: 5 μL
DNA substrate concentration in the reaction: 40 nM
Inhibitor concentration range tested: 7 nM-50 μM
Each plate contains a series of high and low signal control wells, where no compound is added:
High signal: MRE11+DNA substrate
Low signal: DNA substrate only
These are used during data evaluation.
Two Extra Assay Controls:
1) To check whether unwinding of DNA by the compounds alone occurs.
The DNA substrate [CY5+BBQ(650)] is mixed with the compounds with no protein present.
The CY5 single stranded oligo is mixed with the compounds with no protein present.
The layout of the plates is created by the in-house software (CZ-Openscreen Prague) and this information is transferred to the robotic HTS station.
The reaction is started by the addition of DNA and the reaction time is counted from that moment, including a 15 min delay. Ten timepoints are measured:
The assay data analysis was performed at t=4 h. This corresponds to the time when the reaction is close to its maximum.
The data analysis was performed using the in-house software (CZ-Openscreen Prague) to obtain IC50 for each compound.

A further experiment has as its system DR-GFP U2OS cells. The experiment is described as follows: HR assay (GFP fluorescence by flow cytometry after I-SceI transfection). The class given is cell-based. To be noted: Homo sapiens, 25 μM inhibitor, 72 hours after transfection. As for the experimental part:
DR-GFP U2OS cells (Methods in Molecular Biology 2012, 920, 379.) were transfected with 2.5 μg of I-SceI-expressing pCAGGS vector and treated with the inhibitors at 25 μM concentration. 72 hours after the transfection, the cells were trypsinized and resuspended in 3% BSA in PBS. GFP fluorescence detection was carried out using a BD FACSVerse flow cytometer and data analyzed with FlowJo software.

MRE11, sequence (P49959 whole entry): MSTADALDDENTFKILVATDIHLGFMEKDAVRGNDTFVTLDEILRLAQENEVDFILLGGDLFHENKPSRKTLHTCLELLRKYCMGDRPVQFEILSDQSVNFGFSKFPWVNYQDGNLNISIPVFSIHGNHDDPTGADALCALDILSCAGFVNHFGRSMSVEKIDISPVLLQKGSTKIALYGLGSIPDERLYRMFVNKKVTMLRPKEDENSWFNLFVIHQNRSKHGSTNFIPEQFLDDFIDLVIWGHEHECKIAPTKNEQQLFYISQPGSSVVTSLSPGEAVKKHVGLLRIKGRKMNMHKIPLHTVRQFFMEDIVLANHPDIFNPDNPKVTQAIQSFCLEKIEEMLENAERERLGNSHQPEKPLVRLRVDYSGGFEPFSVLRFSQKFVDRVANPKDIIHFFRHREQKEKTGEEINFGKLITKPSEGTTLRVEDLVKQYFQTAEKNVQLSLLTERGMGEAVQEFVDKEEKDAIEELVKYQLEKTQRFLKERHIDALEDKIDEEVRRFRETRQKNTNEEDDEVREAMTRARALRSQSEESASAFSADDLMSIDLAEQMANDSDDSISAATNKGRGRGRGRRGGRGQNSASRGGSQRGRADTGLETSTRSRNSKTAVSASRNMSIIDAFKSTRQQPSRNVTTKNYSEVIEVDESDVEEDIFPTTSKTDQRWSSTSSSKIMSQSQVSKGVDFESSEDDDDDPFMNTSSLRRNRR

In the case of `N#CC(Cc1ccc(O)c(O)c1)C(=O)Nc1nc(-c2cccc(Cl)c2)cs1` (stereo not drawn) [Preparative Example 162, N-(4-(3-chlorophenyl)thiazol-2-yl)-2-cyano-3-(3,4-dihydroxyphenyl)propanamide], at MRE11, the IC50 is 2 to 10 µM. In the experiment on DR-GFP U2OS cells, the inhibition at 25 µM is 50 to 75%.
At MRE11, `N#CC(Cc1ccc(O)c(O)c1)C(=O)Nc1nc(-c2ccc(C3CCCCC3)cc2)cs1` (stereo not drawn) [Preparative Example 154, 2-cyano-N-(4-(4-cyclohexylphenyl)thiazol-2-yl)-3-(3,4-dihydroxyphenyl)propanamide] yielded an IC50 of 2 to 10 µM. The compound further had an inhibition at 25 µM in the experiment with DR-GFP U2OS cells above 75%.
Taken in the same sequence, the figures for `N#Cc1cc(CC(C#N)C(=O)Nc2nc(-c3ccccc3)cs2)ccc1O` (stereo not drawn) [Preparative Example 151, 2-cyano-3-(3-cyano-4-hydroxyphenyl)-N-(4-phenylthiazol-2-yl)propanamide] were 10 to 90 µM and below 50%.
On the same counts, the results for `N#Cc1ccc(-c2csc(NC(=O)C(C#N)Cc3ccc(O)c(O)c3)n2)cc1` (stereo not drawn) [Preparative Example 131, 2-cyano-N-(4-(4-cyanophenyl)thiazol-2-yl)-3-(3,4-dihydroxyphenyl)propanamide] are 2 to 10 µM and 50 to 75%.
Consider `N#CC(Cc1cc(F)c(O)c(Cl)c1)C(=O)Nc1nc(-c2ccccc2)cs1` (stereo not drawn) [Preparative Example 156, 3-(3-chloro-5-fluoro-4-hydroxyphenyl)-2-cyano-N-(4-phenylthiazol-2-yl)propanamide], for which the IC50 on MRE11 lay within 2 to 10 µM. Moreover, in the experiment with DR-GFP U2OS cells, the inhibition at 25 µM is below 50%.
Taken in the same sequence, the figures for `Cc1cc(-c2csc(NC(=O)C(C#N)Cc3ccc(O)c(O)c3)n2)cs1` (stereo not drawn) [Preparative Example 152, 2-cyano-3-(3,4-dihydroxyphenyl)-N-(4-(5-methylthiophen-3-yl)thiazol-2-yl)propanamide] were 2 to 10 µM and below 50%.
Taken in the same sequence, the figures for `Cc1ccc(-c2csc(NC(=O)C(C#N)Cc3ccc(O)c(O)c3)n2)nc1` (stereo not drawn) [Preparative Example 165, 2-cyano-3-(3,4-dihydroxyphenyl)-N-(4-(5-methylpyridin-2-yl)thiazol-2-yl)propanamide] were below 2 µM and above 75%.
Take `CC(C#N)(Cc1ccc(O)c(O)c1)C(=O)Nc1nc(-c2ccccc2)cs1` (stereo not drawn) [Preparative Example 179, 2-cyano-3-(3,4-dihydroxyphenyl)-2-methyl-N-(4-phenylthiazol-2-yl)propanamide]: the IC50 at MRE11 fell in the range of 10 to 90 µM. Besides, the inhibition at 25 µM with DR-GFP U2OS cells was below 50%.
On the same counts, the results for `CC(C)c1ccc(-c2csc(NC(=O)C(C#N)Cc3ccc(O)c(O)c3)n2)cc1` (stereo not drawn) [Preparative Example 166, 2-cyano-3-(3,4-dihydroxyphenyl)-N-(4-(4-isopropylphenyl)thiazol-2-yl)propanamide] are 2 to 10 µM and above 75%.
As to `N#CC(Cc1ccc(O)c(O)c1)C(=O)Nc1nc(-c2ccc3c(c2)CCCC3)cs1` (stereo not drawn) [Preparative Example 153, 2-cyano-3-(3,4-dihydroxyphenyl)-N-(4-(5,6,7,8-tetrahydronaphthalen-2-yl)thiazol-2-yl)propanamide], the IC50 against MRE11 was in the range of 2 to 10 µM. The inhibition at 25 µM in the experiment on DR-GFP U2OS cells was above 75%.
Compound `N#CC(Cc1cc(Cl)c(O)c(Cl)c1)C(=O)Nc1nc(-c2ccc(OC(F)(F)F)cc2)cs1` (stereo not drawn) [Preparative Example 137, 2-cyano-3-(3,5-dichloro-4-hydroxyphenyl)-N-(4-(4-(trifluoromethoxy)phenyl)thiazol-2-yl)propanamide] showed an IC50 against MRE11 of 2 to 10 µM. In the experiment with DR-GFP U2OS cells, this compound displayed an inhibition at 25 µM below 50%.
Taken in the same sequence, the figures for `N#CC(Cc1ccc(O)c(O)c1)C(=O)Nc1nc(-c2cc(C(F)(F)F)ccn2)cs1` (stereo not drawn) [Preparative Example 174, 2-cyano-3-(3,4-dihydroxyphenyl)-N-(4-(4-(trifluoromethyl)pyridin-2-yl)thiazol-2-yl)propanamide] were below 2 µM and above 75%.
Taken in the same sequence, the figures for `Cc1ccc(-c2csc(NC(=O)C(C#N)Cc3ccc(O)c(O)c3)n2)cc1` (stereo not drawn) [Preparative Example 133, 2-cyano-3-(3,4-dihydroxyphenyl)-N-(4-(p-tolyl)thiazol-2-yl)propanamide] were 2 to 10 µM and below 50%.
On the same counts, the results for `Cc1ccnc(-c2csc(NC(=O)C(C#N)Cc3ccc(O)c(O)c3)n2)c1` (stereo not drawn) [Preparative Example 164, 2-cyano-3-(3,4-dihydroxyphenyl)-N-(4-(4-methylpyridin-2-yl)thiazol-2-yl)propanamide] are 2 to 10 µM and above 75%.
`Cc1cccc(-c2csc(NC(=O)C(C#N)Cc3ccc(O)c(O)c3)n2)n1` (stereo not drawn) [Preparative Example 158, 2-cyano-3-(3,4-dihydroxyphenyl)-N-(4-(6-methylpyridin-2-yl)thiazol-2-yl)propanamide] returned an IC50 at MRE11 of 2 to 10 µM. The compound further gave an inhibition at 25 µM with DR-GFP U2OS cells above 75%.
`Cc1cc(CC(C#N)C(=O)Nc2nc(-c3ccccc3)cs2)cc(C)c1O` (stereo not drawn) [Preparative Example 147, 2-cyano-3-(4-hydroxy-3,5-dimethylphenyl)-N-(4-phenylthiazol-2-yl)propanamide] showed an IC50 against MRE11 of 10 to 90 µM. The compound also came in with an inhibition at 25 µM with DR-GFP U2OS cells of 50 to 75%.
In turn, `N#CC(Cc1ccc(O)c(O)c1)C(=O)Nc1nc(-c2ccc(Cl)cc2Cl)cs1` (stereo not drawn) [Preparative Example 171, 2-cyano-N-(4-(2,4-dichlorophenyl)thiazol-2-yl)-3-(3,4-dihydroxyphenyl)propanamide] gave an IC50 on MRE11 below 2 µM. This compound returned an inhibition at 25 µM in the experiment on DR-GFP U2OS cells above 75%.
Taken in the same sequence, the figures for `Cc1cc(CC(C#N)C(=O)Nc2nc(-c3ccc(C(C)(C)C)cc3)cs2)cc(C)c1O` (stereo not drawn) [Preparative Example 149, N-(4-(4-(tert-butyl)phenyl)thiazol-2-yl)-2-cyano-3-(4-hydroxy-3,5-dimethylphenyl)propanamide] were 10 to 90 µM and above 75%.
As to `COc1cccc(-c2csc(NC(=O)C(C#N)Cc3ccc(O)c(O)c3)n2)n1` (stereo not drawn) [Preparative Example 170, 2-cyano-3-(3,4-dihydroxyphenyl)-N-(4-(6-methoxypyridin-2-yl)thiazol-2-yl)propanamide], on MRE11, the IC50 is 2 to 10 µM. Also, the inhibition at 25 µM in the experiment with DR-GFP U2OS cells is 50 to 75%.
On MRE11, `COc1ccc(-c2csc(NC(=O)C(C#N)Cc3ccc(O)c(O)c3)n2)nc1` (stereo not drawn) [Preparative Example 168, 2-cyano-3-(3,4-dihydroxyphenyl)-N-(4-(5-methoxypyridin-2-yl)thiazol-2-yl)propanamide] displayed a half-inhibitory concentration (IC50) below 2 µM. In addition, in the experiment on DR-GFP U2OS cells, the inhibition at 25 µM is above 75%.
On the same counts, the results for `N#CC(Cc1ccc(O)c(O)c1)C(=O)Nc1nc(-c2cc(Cl)sc2Cl)cs1` (stereo not drawn) [Preparative Example 175, 2-cyano-N-(4-(2,5-dichlorothiophen-3-yl)thiazol-2-yl)-3-(3,4-dihydroxyphenyl)propanamide] are 2 to 10 µM and 50 to 75%.
On the same counts, the results for `N#CC(Cc1ccc(O)c(O)c1)C(=O)Nc1nc(-c2ccsc2)cs1` (stereo not drawn) [Preparative Example 145, 2-cyano-3-(3,4-dihydroxyphenyl)-N-(4-(thiophen-3-yl)thiazol-2-yl)propanamide] are 2 to 10 µM and below 50%.
`N#CC(Cc1ccc2nc[nH]c2c1)C(=O)Nc1nc(-c2ccccc2)cs1` (stereo not drawn) [Preparative Example 142, 3-(1H-benzo[d]imidazol-6-yl)-2-cyano-N-(4-phenylthiazol-2-yl)propanamide]: the half-maximal inhibitory concentration (IC50) against MRE11 lay in the range of 10 to 90 µM. In the experiment on DR-GFP U2OS cells, the inhibition at 25 µM is below 50%.
Taken in the same sequence, the figures for `Cc1ccc(-c2sc(NC(=O)C(C#N)Cc3ccc(O)c(O)c3)nc2-c2ccccc2)cc1` (stereo not drawn) [Preparative Example 135, 2-cyano-3-(3,4-dihydroxyphenyl)-N-(4-phenyl-5-(p-tolyl)thiazol-2-yl)propanamide] were below 2 µM and above 75%.
On the same counts, the results for `Cc1cc(CC(C#N)C(=O)Nc2nc(-c3ccccc3)cs2)cc(Cl)c1O` (stereo not drawn) [Preparative Example 155, 3-(3-chloro-4-hydroxy-5-methylphenyl)-2-cyano-N-(4-phenylthiazol-2-yl)propanamide] are 10 to 90 µM and below 50%.
`N#CC(Cc1ccc(O)c(O)c1)C(=O)Nc1nc(-c2cccc(-c3ccccc3)c2)cs1` (stereo not drawn) [Preparative Example 138, N-(4-([1,1′-biphenyl]-3-yl)thiazol-2-yl)-2-cyano-3-(3,4-dihydroxyphenyl)propanamide] gave an IC50 against MRE11 of 2 to 10 µM. This compound also showed an inhibition at 25 µM in the experiment with DR-GFP U2OS cells above 75%.
On the same counts, the results for `N#CC(Cc1ccc(O)c(O)c1)C(=O)Nc1nc(-c2ncccc2F)cs1` (stereo not drawn) [Preparative Example 172, 2-cyano-3-(3,4-dihydroxyphenyl)-N-(4-(3-fluoropyridin-2-yl)thiazol-2-yl)propanamide] are below 2 µM and above 75%.
